Where a name gives a salt, the structure may show the parent alone. Read-outs that look alike come from different tables or passages of the source.
How the values were obtained:
Type in all cases: biochemical, Ratten
[1] = molecular target: T1, Monoaminoxidase Typ A (Rattus norvegicus, UniProt P21396); experiment: Inhibition of monoamine oxidase type A in rat brain homogenate (14C-tryptamine); settings: for Hemmung der Monoaminoxidase Typ A r.W. (relative Wirksamkeit): Quotient IC50 Referenzverbindung / IC50 Beispielverbindung
T1 construct: Die Bestimmung der Monoaminoxidase erfolgte in verdünntem Rattenhirnhomogenat; from tissue; host or cells: rat brain homogenate
T1 sequence (P21396 1-526): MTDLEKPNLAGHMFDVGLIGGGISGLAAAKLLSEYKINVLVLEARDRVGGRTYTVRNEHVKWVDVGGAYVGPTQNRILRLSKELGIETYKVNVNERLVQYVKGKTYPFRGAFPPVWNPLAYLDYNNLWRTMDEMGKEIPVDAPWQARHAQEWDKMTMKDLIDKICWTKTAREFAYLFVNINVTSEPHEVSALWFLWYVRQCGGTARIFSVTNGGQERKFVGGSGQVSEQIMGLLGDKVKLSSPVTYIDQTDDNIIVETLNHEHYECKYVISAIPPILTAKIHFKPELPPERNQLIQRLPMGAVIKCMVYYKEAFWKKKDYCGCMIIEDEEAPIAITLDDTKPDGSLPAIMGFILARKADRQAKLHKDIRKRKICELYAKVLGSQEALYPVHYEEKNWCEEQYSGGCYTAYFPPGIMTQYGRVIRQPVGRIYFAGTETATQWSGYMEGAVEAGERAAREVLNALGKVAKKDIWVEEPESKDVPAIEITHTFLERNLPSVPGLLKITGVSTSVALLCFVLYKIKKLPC
Experimental: (§1) Hemmung der Monoaminoxidase
(§2) Die Bestimmung der Monoaminoxidase erfolgte in verdünntem Rattenhirnhomogenat dem 1. unterschiedliche Konzentrationen der zu prüfenden Testsubstanzen und 2. für die Bestimmung der Monoaminoxidase Typ A ¹⁴C-Tryptamin in einer Konzentration von 0,4 µmol, zur Bestimmung der Monoaminoxidase Typ B ¹⁴C-Phenylethylamin in einer Konzentration von 0,25 µmol zugesetzt wurde. Dieser Ansatz wurde 20 Minuten bei 37°C inkubiert. Die Reaktion wird durch 0,1 n HCl gestoppt und die Reaktionsprodukte nach Extraktion in Toluol-Szintillator (PPO + POPOP in Toluol) bestimmt. Der Blindwert wird in analogen Ansätzen mit einer Inkubationszeit von t = 0 Minuten bestimmt.
(§3) Aus den bei den verschiedenen Inhibitorkonzentrationen gegen die Kontrolle ermittelten Hemmwerten wurde durch lineare Regression nach logit-log-Transformation die mittlere Hemmkonzentration (IC₅₀) berechnet.

[2] = molecular target: T2, Synaptosomen-Aufnahme von Serotonin (Rattus norvegicus, UniProt P31652); experiment: Inhibition of serotonin uptake in rat brain synaptosomes (cortex, 3H-serotonin); settings: for Hemmung der Synaptosomen-Aufnahme von Serotonin r.W. (relative Wirksamkeit): Quotient IC50 Referenzverbindung / IC50 Beispielverbindung
T2 construct: Durch differentielle Zentrifugation wurden Synaptosomen erhalten; from tissue; host or cells: rat brain cortex synaptosomes
From the text: (§4) Hemmung der Neurotransmitter-Aufnahme in Rattenhirn-Synaptosomen
(§5) Hippocampus und Cortex aus Rattenhirn wurden präpariert und in 0,32 M Sucrose-Lösung homogenisiert. Durch differentielle Zentrifugation wurden Synaptosomen erhalten, die in Pufferlösung suspendiert wurden. Die Synaptosomen sind in der Lage, aus dem umgebenden Medium zugefügte Neurotransmittersubstanzen (z.B. Noradrenalin oder Serotonin) aktiv aufzunehmen. Dieser Vorgang ist durch uptake-Hemmer konzentrationsabhängig antagonisierbar. Die Synaptosomen wurden mit den Testsubstanzen in verschiedenen Konzentrationen versetzt und anschließend mit ³H-Noradrenalin (Hippocampus) bzw. ³H-Serotonin (Cortex) bei 37°C inkubiert. Die Substratkonzentration betrug ca. 10 nM. Nach Stoppen der Aufnahme durch Verdünnen mit eisgekühlter Pufferlösung wurden die Synaptosomen abzentrifugiert und die ³H-Aktivität im Sediment gemessen. Der Blindwert wird durch Inkubation bei 0°C ermittelt.
(§6) Aus den verschiedenen Inhibitor-Konzentrationen gegen Kontrolle ermittelten Hemmwerten wurde durch lineare Regression nach logit-log-Transformation die mittlere Hemmkonzentration IC₅₀ berechnet.

[3] = molecular target: T3, Monoaminoxidase Typ B (Rattus norvegicus, UniProt P19643); experiment: Inhibition of monoamine oxidase type B in rat brain homogenate (14C-phenylethylamine); settings: for Hemmung der Monoaminoxidase Typ B r.W. (relative Wirksamkeit): Quotient IC50 Referenzverbindung / IC50 Beispielverbindung
T3 construct: Die Bestimmung der Monoaminoxidase erfolgte in verdünntem Rattenhirnhomogenat; from tissue; host or cells: rat brain homogenate
T3 sequence (P19643 1-520): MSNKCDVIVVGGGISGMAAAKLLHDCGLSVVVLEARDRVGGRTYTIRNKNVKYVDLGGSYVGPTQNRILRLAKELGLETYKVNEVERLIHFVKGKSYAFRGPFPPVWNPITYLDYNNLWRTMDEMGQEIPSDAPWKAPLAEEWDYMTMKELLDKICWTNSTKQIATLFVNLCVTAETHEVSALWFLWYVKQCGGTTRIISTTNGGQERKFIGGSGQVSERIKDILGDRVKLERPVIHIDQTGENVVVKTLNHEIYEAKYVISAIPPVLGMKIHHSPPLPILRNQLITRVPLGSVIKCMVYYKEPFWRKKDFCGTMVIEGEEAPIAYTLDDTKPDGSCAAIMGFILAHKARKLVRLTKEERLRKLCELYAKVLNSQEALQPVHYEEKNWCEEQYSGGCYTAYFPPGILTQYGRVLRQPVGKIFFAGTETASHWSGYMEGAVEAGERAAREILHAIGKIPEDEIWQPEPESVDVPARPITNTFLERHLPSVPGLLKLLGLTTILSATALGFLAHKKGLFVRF
Experimental: as §1, §2, §3

[4] = molecular target: T4, Synaptosomen-Aufnahme von Noradrenalin (Rattus norvegicus, UniProt Q63380); experiment: Inhibition of noradrenaline uptake in rat brain synaptosomes (hippocampus, 3H-noradrenaline); settings: for Hemmung der Synaptosomen-Aufnahme von Noradrenalin r.W. (relative Wirksamkeit): Quotient IC50 Referenzverbindung / IC50 Beispielverbindung
T4 construct: Durch differentielle Zentrifugation wurden Synaptosomen erhalten; from tissue; host or cells: rat brain hippocampus synaptosomes
From the text: as §4, §5, §6

[5] = rat brain homogenate, 14C-Tryptamin, 20 min 37°C, read-out: Hemmung der Monoaminoxidase Typ A IC50
[6] = rat cortex synaptosomes, 3H-Serotonin ca. 10 nM, 37°C, read-out: Hemmung der Synaptosomen-Aufnahme von Serotonin IC50
[7] = rat brain homogenate, 14C-Phenylethylamin, 20 min 37°C, read-out: Hemmung der Monoaminoxidase Typ B IC50
[8] = rat hippocampus synaptosomes, 3H-Noradrenalin ca. 10 nM, 37°C, read-out: Hemmung der Synaptosomen-Aufnahme von Noradrenalin IC50

T2 sequence (P31652 whole entry): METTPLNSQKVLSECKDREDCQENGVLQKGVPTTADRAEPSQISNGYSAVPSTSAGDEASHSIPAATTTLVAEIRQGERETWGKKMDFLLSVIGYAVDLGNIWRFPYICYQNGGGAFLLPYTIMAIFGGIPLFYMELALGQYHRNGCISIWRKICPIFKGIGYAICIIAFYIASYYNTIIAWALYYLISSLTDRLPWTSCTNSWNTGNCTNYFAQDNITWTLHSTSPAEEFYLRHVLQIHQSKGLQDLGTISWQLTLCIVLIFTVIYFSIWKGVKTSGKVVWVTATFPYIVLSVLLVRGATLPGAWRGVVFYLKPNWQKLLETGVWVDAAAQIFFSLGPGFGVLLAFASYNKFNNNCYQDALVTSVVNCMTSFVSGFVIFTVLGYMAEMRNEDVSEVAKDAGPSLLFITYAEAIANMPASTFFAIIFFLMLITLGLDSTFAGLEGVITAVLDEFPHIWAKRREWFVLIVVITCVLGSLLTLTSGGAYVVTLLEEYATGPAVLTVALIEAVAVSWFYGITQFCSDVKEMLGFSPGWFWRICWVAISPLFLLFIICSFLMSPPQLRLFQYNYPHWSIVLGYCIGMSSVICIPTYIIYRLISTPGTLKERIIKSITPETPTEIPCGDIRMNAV
T4 sequence (Q63380 1-617): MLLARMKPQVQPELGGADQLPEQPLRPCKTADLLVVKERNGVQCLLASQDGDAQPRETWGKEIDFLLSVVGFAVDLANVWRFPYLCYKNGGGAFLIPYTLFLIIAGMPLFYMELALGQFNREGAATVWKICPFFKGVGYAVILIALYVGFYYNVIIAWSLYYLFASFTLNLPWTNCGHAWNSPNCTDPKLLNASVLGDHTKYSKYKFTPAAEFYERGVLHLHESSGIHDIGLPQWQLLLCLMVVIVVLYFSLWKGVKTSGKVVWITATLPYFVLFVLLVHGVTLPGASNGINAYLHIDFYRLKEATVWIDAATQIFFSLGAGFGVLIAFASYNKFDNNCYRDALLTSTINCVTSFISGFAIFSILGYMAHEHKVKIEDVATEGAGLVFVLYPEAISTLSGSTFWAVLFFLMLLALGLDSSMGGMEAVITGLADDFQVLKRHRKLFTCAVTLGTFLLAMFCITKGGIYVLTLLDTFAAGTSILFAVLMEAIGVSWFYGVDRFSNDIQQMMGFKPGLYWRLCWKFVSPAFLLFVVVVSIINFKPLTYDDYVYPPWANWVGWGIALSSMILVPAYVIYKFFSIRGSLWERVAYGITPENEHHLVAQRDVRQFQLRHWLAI

| Structure (SMILES) | Hemmung der Monoaminoxidase Typ A r.W. (relative Wirksamkeit) [1] | IC50 [1, 5] | Hemmung der Synaptosomen-Aufnahme von Serotonin r.W. (relative Wirksamkeit) [2] | IC50 [2, 6] | Hemmung der Monoaminoxidase Typ B r.W. (relative Wirksamkeit) [3] | IC50 [3, 7] | Hemmung der Synaptosomen-Aufnahme von Noradrenalin r.W. (relative Wirksamkeit) [4] | IC50 [4, 8] | IC50 [1] | IC50 [2] | IC50 [3] | IC50 [4] | Hemmung der Monoaminoxidase A, Wirksamkeit der Vergleichssubstanz übertroffen (fach) ([1]; fold versus comparison substance) |
| --- | --- | --- | --- | --- | --- | --- | --- | --- | --- | --- | --- | --- | --- |
| N=c1ccn(-c2ccc(Cl)c(Cl)c2)nc1 [Beispiel 1, 1-(3,4-Dichlorphenyl)-4-(1H)-pyridazinimin-hydrochlorid] | 2.2 | 1900 nM | 112 | 6.5 nM | 18.8 | 2600 nM | 5.3 | 5.8 nM |  |  |  |  |  |
| Br.Cc1ccc(-n2ccc(=N)cn2)cc1 [Beispiel 5, 1-(4-Methylphenyl)-4-(1H)-pyridazinimin-hydrobromid] | 2.8 |  | 1.4 |  | 4.9 |  | 0.7 |  | 1500 nM | 240 nM | 10000 nM | 46 nM |  |
| CCc1ccc(-n2ccc(=N)cn2)cc1.Cl [Beispiel 7, 1-(4-Ethylphenyl)-4-(1H)-pyridazinimin-hydrochlorid] | 6.6 |  | 12.6 |  | 32.7 |  | 0.1 |  | 640 nM | 58 nM | 1500 nM | 500 nM |  |
| N=c1ccn(-c2ccc(Br)cc2)nc1 [Beispiel 8, 1-(4-Bromphenyl)-4-(1H)-pyridazinimin-hydrochlorid] | 1.4 | 2900 nM | 56.2 | 13 nM | 4.9 | 10000 nM | 0.9 | 34 nM |  |  |  |  |  |
| COc1cc(-n2ccc(=N)cn2)ccc1C.Cl [Beispiel 10, 1-(3-Methoxy-4-methylphenyl)-4-(1H)-pyridazinimin-hydrochlorid] | 3.4 |  | 15.2 |  | 4.9 |  | 0.3 |  | 1200 nM | 48 nM | 10000 nM | 110 nM |  |
| Cc1ccc(-n2ccc(=N)cn2)cc1F [Beispiel 11, 1-(3-Fluor-4-methylphenyl)-4-(1H)-pyridazinimin-hydrochlorid] | 2.0 | 2100 nM | 7.3 | 100 nM | 9.6 | 5100 nM | 1.2 | 26 nM |  |  |  |  |  |
| N=c1ccn(-c2ccc(C(F)(F)F)c(Cl)c2)nc1 [Beispiel 12, 1-(3-Chlor-4-trifluormethylphenyl)-4-(1H)-pyridazinimin-hydrochlorid] | 2.3 | 1800 nM | 83.9 | 8.7 nM | 71 | 700 nM | 0.4 | 83 nM |  |  |  |  |  |
| Cc1ccc(-n2ccc(=N)cn2)cc1Br [Beispiel 13, 1-(3-Brom-4-methylphenyl)-4-(1H)-pyridazinimin-hydrochlorid] | 7.0 | 590 nM | 73.0 | 10 nM | 39.8 | 1200 nM | 1.2 | 26 nM |  |  |  |  | ≤ 7 |

From patent EP0227941A1, “1-Phenyl-4-(1H)-pyridazinimines, their preparation and use” (BASF Aktiengesellschaft, priority 1985, dated 1987)
